Source: US20030157516A1, “G protein coupled receptor” (priority 2000, published 2003)

Legend:
Type in all cases: cell-based
[1] = molecular target: T1, adenine binding rat receptor (Rattus norvegicus, UniProt Q7TN49); assay: cAMP measurements on CHO cells permanently transfected (clone 28)
T1 construct: expressed in transfected cells; host or cells: CHO cells, transient, lipofectamine PLUS
T1 sequence (Q7TN49 1-304): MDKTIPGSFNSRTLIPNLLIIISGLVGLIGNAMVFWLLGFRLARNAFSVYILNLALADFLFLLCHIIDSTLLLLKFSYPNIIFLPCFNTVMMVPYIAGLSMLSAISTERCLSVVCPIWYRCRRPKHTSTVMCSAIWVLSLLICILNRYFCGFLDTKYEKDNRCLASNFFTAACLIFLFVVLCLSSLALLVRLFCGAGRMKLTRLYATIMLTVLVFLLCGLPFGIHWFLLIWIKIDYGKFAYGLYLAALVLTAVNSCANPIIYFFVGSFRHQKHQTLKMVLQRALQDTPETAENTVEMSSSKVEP
Method: (§1) For permanently transfected CHO cells, cAMP measurements were performed using the indirect RIA kit from NEN (Belgium).
(§2) a) Methods: Two days before the experiment the cells were seeded out in a 96 well plate at a density required for approximately 90% confluence at the day of the experiment. After removal of the growth medium, the cells were washed twice with a controlled salt solution (CSS) containing 25 mM Tris-HCl, pH 7.4, 120 mM NaCl, 5.4 mM KCl, 0.8 mM MgCl2, 1.8 mM CaCl2, 15 mM glucose and 15 mg/l phenol red, with an addition of a phosphodiesterase inhibitor IBMX (3-isobutyl-1-methylxanthine) in a concentration of 1 mM and […]. Basal cAMP levels were determined in CSS containing these additives and maximally stimulated cAMP levels were determined in the presence of 50 μM forskolin. For testing agonistic activity, the compounds were incubated with the cells for 20 minutes at 37° C. The reaction was stopped by addition of ice cold HClO4 (1N) and stored at −20° C. After thawing the mixtures were neutralized with an equivalent amount of phosphate buffered KOH, left at 4° C. during 30 minutes to allow the salts to precipitate and centrifuged at 2,000 RPM for 5 minutes at 4° C.
(§3) For the quantitative determination of the cAMP levels, a 96-well Flashplate radioimmunoassay kit from NEN was used, according to the protocol of the supplier. The sigmoid concentration response curves (duplicate points) were analyzed using the GraphPad Prism program.

wild type CHO cells [2] = assay: cAMP measurements on wild type CHO cells; conditions: wild type CHO cells
Method: as §1, §2, §3

[3] = molecular target: T1, adenine binding rat receptor; assay: cAMP measurements on CHO cells transiently transfected (forskolin stimulated); conditions: inhibition of forskolin stimulated cAMP
Method: a) Methods—For transiently transfected CHO cells, cAMP measurements were performed using the direct RIA kit from NEN (Belgium).
The cells were collected from 50 mm petri dishes by adding 1 ml 0.04% EDTA and re-suspending them in PBS (without Ca^2+ and Mg^2+). The cells were then centrifuged for 5 minutes at 1,500 RPM, the supernatant was removed and the pellet was re-suspended in stimulation buffer (provided by the supplier, NEN). The cells were counted and 50 μl was added to each well of a 96-well flashplate at a density of 10^6 cells/well. A standard curve of cAMP was prepared in stimulation buffer, covering a range from 10 to 1,000 nM, and 50 μl was added to the flashplate.
The compounds were diluted in PBS with forskolin (at 50 μM), and 50 μl of the ligand, 2 times the final concentration, was added to the cells and incubated for 20 minutes at 37° C. After the 20 minutes incubation, 100 μl of the [^125I]cAMP tracer (2 μCi) was added to each well, resulting in a final volume of 200 μl/well. The plate was left at room temperature, until being counted in the Topcount™ microplate scintillation counter (Packard, Netherlands). The sigmoid concentration response curves (duplicate points) were analyzed using the GraphPad Prism program (GraphPad Software, Calif., USA).
as §2, §3

rat adenine binding GPCR = molecular target: T2, rat adenine binding GPCR (Rattus norvegicus, UniProt Q7TN49); assay: Intracellular Ca2+ measurements (FLIPR) on permanently transfected CHO cells, clone 28; parameters: The full length reading frame was inserted into the mammalian expression vector pcDNA3; expressed in transfected cells
T2 sequence (Q7TN49 1-304): T1 sequence (Q7TN49 1-304)
Method: Finally, measurements of intracellular Ca^2+ were performed on the best functionally coupled CHO cell line, clone 28. The effect of Na-butyrate pre-treatment was investigated using a dose response curve of adenine.
a) Methods—Two days before the experiment the cells were seeded out in a 96 well plate at a density required for approximately 90% cell confluence at the day of the experiment. Compounds were diluted in calcium buffer (5 mM HEPES/NaOH, pH 7.4, 140 mM NaCl, 1 mM MgCl2, 5 mM KCl, 10 mM glucose, 1.25 mM CaCl2, 2.5 mM probenecid, pH 7.4), twice their final concentrations. For basal values, calcium buffer was applied and for the maximum response, 10 μM ionomycin was used. The growth medium was removed and the cells were loaded in serum-free growth medium supplemented with probenecid (5 mM), the indicator Fluo-3 (2 μM), 20 mM HEPES/NaOH, pH, 7.4 and 0.1% BSA in the incubator at 37° C. After 60 minutes incubation, the cells were washed 3 times with the calcium buffer. 100 μl of the diluted compounds was transferred to the wells and changes in intracellular calcium levels were measured with the FLIPR® (Fluorometric Imaging Plate Reader, Molecular Devices). Each data point was run in duplicate and the peak of the Ca ^2+-transient was considered as the relevant signal. The sigmoid concentration response curves were analyzed using the GraphPad Prism program.

wild type CHO cells [4] = assay: Intracellular Ca2+ measurements (FLIPR) on wild type CHO cells
adenine binding GPCR = molecular target: T3, adenine binding GPCR (Rattus norvegicus, UniProt Q7TN49); assay: FLIPR Ca2+ transient assay, antagonism of 30 nM adenine challenge; conditions: 15 minutes incubation with compound (30 μM to 30 pM), then challenge with 30 nM adenine
T3 construct: The full length reading frame was inserted into the mammalian expression vector pcDNA3; expressed in transfected cells; host or cells: HEK293 cells stably transfected with pLEC/Gqi or pLEC/Gqo
T3 sequence (Q7TN49 1-304): T1 sequence (Q7TN49 1-304)
From the text: The full length reading frame was inserted into the mammalian expression vector pcDNA3 (Invitrogen, Carlsbad, Calif., U.S.A.) and the resulting expression construct was transiently transfected with the FuGENE 6 reagent (Roche Molecular Biochemicals, Mannheim, Germany) into HEK293 cells stably transfected (E. Bender, unpublished) with pLEC/Gqi or pLEC/Gqo (Molecular Devices, Sunnyvale, Calif., U.S.A.). The cells were loaded with Fluo-4 (Molecular Probes, Eugene, Oreg., U.S.A.) according to the recommendations of the supplier.
After a 15 minutes incubation at room temperature, the same cells were challenged with 30 nM adenine, to detect antagonistic properties of molecules added in the first round of superfusion.

[5] = direct assay, 0.5% hiFCS, read-out: pEC50 (converted)
[6] = direct assay, 2% hiFCS, read-out: pEC50 (converted)
[7] = indirect assay, 0.5% hiFCS, read-out: pEC50 (converted)
[8] = clone 28, Na-butyrate treated cells
[9] = clone 28, non-Na-butyrate treated cells

| EC50 ([1]; after Na-butyrate induction, read-out: EC50) | EC50 ([1]; transfected cells (clone 28), 0.5% hiFCS, Na-butyrate induction, read-out: pEC50 (converted)) | EC50 ([1]; transfected cells (clone 28), 10% hiFCS, Na-butyrate induction, read-out: pEC50 (converted)) | EC50 [3, 5] | EC50 [3, 6] | EC50 [3, 7] | EC50 ([3]; indirect assay, 2% hiFCS, read-out: pEC50 (converted)) | EC50 ([3]; transiently transfected cells, read-out: EC50) | EC50 (rat adenine binding GPCR; [8]) | increase in RFU (rat adenine binding GPCR; [8]) | EC50 (rat adenine binding GPCR; [9]) | increase of the basal relative fluorescence units (RFU) (rat adenine binding GPCR; [9]) | antagonistic effect (adenine binding GPCR) | pEC50 ([3]; indirect assay, 2% hiFCS) | SMILES | cAMP response (wild type CHO cells [2]) | intracellular Ca2+ response (wild type CHO cells [4]) |
| --- | --- | --- | --- | --- | --- | --- | --- | --- | --- | --- | --- | --- | --- | --- | --- | --- |
| 3 nM | 2.88 nM | 2.95 nM | 20.9 nM | 7.08 nM | 3.31 nM | 110 nM | ~15 nM | 14.8 nM | 3 fold | 72.4 nM | 1.25 fold | – | – | Nc1ncnc2nc[nH]c12 [Adenine, adenine] | did not show any response | did not show any response |
| – | – | – | – | – | – | – | – | – | – | – | – | did not elicit antagonistic effects | – | Nc1ncnc2c1ncn2[C@@H]1O[C@H](COP(=O)(O)O)[C@@H](O)[C@H]1O [AMP] | – | – |
| – | – | – | 4900 nM | 6310 nM | 7940 nM | – | – | – | – | – | – | – | no fit | Cn1cnc2ncnc-2c1N [1-Methyladenine] | – | – |
